The subject of the assay is Plasmodium falciparum. Put plainly: GSK_TCMDC: Inhibition of Plasmodium falciparum 3D7 in whole erythrocytes, using parasite LDH activity as an index of growth. The class given is functional, organism-based. The following applies: Plasmodium falciparum, 3D7.
`O=C(/C=C/c1ccc(Cl)c(Cl)c1)NCCCN1CCC(c2c[nH]c3ccccc23)CC1` displayed an XC50 of 966 nM.
The figure for `CN(C)Cc1ccc(-c2cc3ncnc(Nc4ccc(OCc5cccc(F)c5)c(Cl)c4)c3s2)[nH]1` is 174 nM; for `Cc1cc(OCCCN2CCCCC2)ccc1NC(=O)COc1ccc(Cl)cc1C(=O)c1cc(C#N)cc(C(F)(F)F)c1` it is 1030 nM; for `Cc1cc(NC(=O)c2ccco2)ccc1OC1CCN(Cc2ccc(C#N)cc2)CC1` it is 497 nM.
For `COc1cc(Nc2ccnc3cc(-c4ccncc4)ccc23)cc(OC)c1OC`, the XC50 was 1080 nM.
For the molecule `O=C(/C=C/c1ccccc1Cl)Nc1ccc(Br)c(OCCN2CCN(CCN3CCOCC3)CC2)c1`, the XC50 stood at 763 nM.
`CC(CNC1CCN(CCn2c(=O)ccc3ccc(F)cc32)CC1)c1ccccc1` (stereo not given) returned an XC50 of 1270 nM.
Turning to `Cc1cc(=O)c(-c2ccc(OCc3ccc(OC(F)(F)F)cc3)cc2)c(C)[nH]1`, the XC50 amounted to 736 nM.
The figure for `CN1CCC(Oc2ccc(CN3CC[C@H](NC(=O)c4cc(F)cc(F)c4)C3)c3ccccc23)C1` (stereo not given in full) is 841 nM; for `Cc1[nH]c2ccccc2c1C1=CCN(CC2CC2C(=O)c2ccccc2)CC1` (stereo not given) it is 349 nM.
The same measure for `O=C(Nc1ccc(OC2CCN(Cc3ccc(F)cc3)CC2)c(Cl)c1)c1ccsc1`: 717 nM; for `Cc1cc(Nc2ccccc2)nc(NCCOc2ccccc2)n1`: 728 nM.
In the case of `CC1(C)CN(CCC2CCC(NC(=O)/C=C/c3ccc(F)cc3F)CC2)Cc2ccc(C#N)cc21` (stereo not given), the XC50 amounted to 787 nM.
The figure for `Cc1cc(N2CCOCC2)nc2ccc(NC(=O)c3ccc(Cl)c([N+](=O)[O-])c3)cc12` is 1030 nM.
For `COc1ccc(OC)c(CC2c3ccc(Br)c(O)c3CCN2C)c1` (stereo not given), the XC50 was found to be 754 nM.
The figure for `CCC(CO)NCC(O)Cn1c2ccc(Br)cc2c2cc(Br)ccc21` (stereo not given) is 783 nM.
With `CCCCN(CCCC)/C(=N/c1cccc(Cl)c1Cl)Nc1ccc(C#N)cc1O`, the XC50 was found to be 853 nM.
`O=C(NC1CCN(Cc2ccccc2)CC1)c1cc(-c2ccncc2)nc2ccc(Cl)cc12` came in with an XC50 of 920 nM.
Molecule `CC(=O)Nc1csc(-c2cnc(/C=C(\C)C[C@@H]3OC[C@H](C[C@@H]4O[C@H]4[C@@H](C)[C@H](C)O)[C@@H](O)[C@H]3O)o2)c1` yielded an XC50 of 178 nM.
`COC(=O)c1cccc(CNCc2cccc(-c3csc(-c4nc5ccccc5[nH]4)c3)c2)c1` had an XC50 of 693 nM.
The same measure for `CCO[C@H]1CN[C@H](C#Cc2cc3c(Nc4ccc(OCc5cccc(F)c5)c(Cl)c4)ncnc3s2)C1`: 939 nM; for `CC1(C)N=C(N)N=C(N)N1CCc1ccccc1`: 47.4 nM; for `N#Cc1cccc(C(=O)NC2CCN(c3ccnc(Nc4ccc(F)cc4)n3)C2)c1` (stereo not given): 396 nM.
The figure for `O=c1ccc2ccc(F)c3c2n1CC3CN1CCC(NCc2cccc(-c3cccs3)c2)CC1` (stereo not given) is 834 nM; for `CCN(CC)CCOc1ccc(N(Cc2ccc(C(C)(C)C)cc2)C(=O)c2ccc(Cc3ccccc3)cc2)cc1OC` it is 773 nM.
As for `Cc1cccc2c(/C=C/C(=O)NC3CCC(CCN4CCc5ccc(C#N)cc5CC4)CC3)c[nH]c12` (stereo not given), the XC50 turned out to be 1220 nM.
The figure for `CC(Cc1ccc(-c2nc3ccccc3[nH]2)cc1)NCC(O)c1cccc(C(F)(F)F)c1` (stereo not given) is 352 nM; for `CN1CCC(NCc2ccc(-c3ccc(S(=O)(=O)NC4CCC4)s3)cc2)CC1` it is 846 nM; for `CCCCCCCNCCNc1cc(C)nc2ccccc12` it is 386 nM.
The figure for `CCCC1N=C(N)N=C(N)N1c1cccc(C(F)(F)F)c1` (stereo not given) is 594 nM.
The figure for `O=C(Nc1ccc(N2CCC(Nc3ccccn3)CC2)cc1)c1cnc(Cl)c(Cl)c1` is 1190 nM; for `CC(=O)c1cc(N2CCCC2)ccc1N` it is 15.5 nM.
Molecule `Cc1nc2ccc(S(=O)(=O)Nc3ccc(C(=O)N[C@@H](CCC(=O)O)C(=O)O)cc3)cc2c(=O)[nH]1` showed an XC50 of 1010 nM.
The figure for `Cc1ccc(C(=O)Nc2ccc(-c3nc4ccccc4[nH]3)cc2)cc1S(=O)(=O)N1CCOCC1` is 1210 nM; for `CC(Cc1ccc(CNC(=O)c2ccc(CC(C)NCCc3cccc(Cl)c3)cc2)cc1)NCCc1cccc(Cl)c1` (stereo not given) it is 696 nM.
The figure for `CCc1sc(CN(CCCNc2cc(=O)c3ccccc3[nH]2)Cc2sc(CC)c(Br)c2-c2ccsc2)c(-c2ccsc2)c1Br` is 94.6 nM; for `N#Cc1cnc2cc(-c3cnc(CNCCN4CCOCC4)s3)ccc2c1Nc1ccc(Oc2ccccc2)cc1` it is 726 nM; for `Cc1cc(CNC(c2ccccc2)C2CCC2)cc(C)c1O` (stereo not given) it is 890 nM.
In turn, `Fc1cccc(COc2ccc(Nc3ncnc4ccc(-c5nnc(C(F)(F)F)o5)cc34)cc2Cl)c1` had an XC50 of 579 nM.
The figure for `COc1cc(C=CC(=O)N2CCN(Cc3cccc(C)c3)CC2)ccc1OCc1c(C)noc1C` is 1030 nM.
Molecule `CCOc1ccc2c(=NN=Cc3cccc(OC)c3OC)cc(C)[nH]c2c1` returned an XC50 of 898 nM.
The same measure for `COc1ccc(Cl)cc1N1CCN(CCCNC(=O)c2ccc(-c3nc4cc(Cl)c(F)cc4[nH]3)cc2)CC1`: 1060 nM; for `Cc1onc(-c2ccccc2)c1-c1nc(NC2CCCC(C)C2)no1` (stereo not given): 836 nM.
On to `CNc1ccc(CNCc2cccc(-c3ccc(-c4nc5ccccc5[nH]4)cc3)c2)cc1`, for which the XC50 was determined as 300 nM.
The figure for `O=[N+]([O-])c1ccccc1C=NN=c1c2c([nH]c3ccccc13)CCCC2` is 311 nM.
The same measure for `Cc1[nH]c(C)c(-c2ccc(-c3ccc(Cl)cc3)nc2)c(=O)c1Br`: 113 nM.
`OC1(CNCc2ccccc2)CCN(CCc2c[nH]c3ccc(F)cc23)CC1` showed an XC50 of 710 nM.
`CCN1CCN(c2cc(C)c3cc(NC(=O)c4ccc(OC)c([N+](=O)[O-])c4)ccc3n2)CC1` returned an XC50 of 553 nM.
The molecule `CN1CCN(c2cc(NC(=O)Nc3cccc(Cl)c3Cl)ccc2Cl)CC1` returned an XC50 of 734 nM.
The same measure for `CCN(CC)CCNC(=O)c1ccc(N/C=C2\C(=O)Nc3ccc(S(=O)(=O)Cc4c(Cl)cccc4Cl)cc32)cc1`: 840 nM.
For `COCC(=O)N(Cc1cccc(-c2ccc(CNCCc3ccccc3)cc2)c1)C1CCN(Cc2ccccc2)CC1`, the XC50 was found to be 1100 nM.
The figure for `CN1CCN(CCCN(Cc2ccc(-c3ccc(CNC4CCCC4)cc3)cc2)C(=O)CCC2CCCC2)CC1` is 886 nM; for `CCN(CC)CCNC(=O)c1ccc(NC(=O)c2cn(-c3ccccc3)nc2-c2cccs2)cc1` it is 258 nM.
The molecule `CC1(CCN2CCC(c3c[nH]c4cnccc34)CC2)CCCc2c(Br)cccc2C1=O` (stereo not given) yielded an XC50 of 195 nM.
The figure for `Cc1cc(OCCN2CCCCC2)ccc1NC(=O)c1cccc2c(=O)n(Cc3ccc(Cl)cc3)cnc12` is 1060 nM; for `CCN(CC)CCN(CCN(CC)CC)c1ccc2c(c1)Sc1c(Cl)ccc(Cl)c1S2` it is 876 nM; for `CC(=O)OC[C@H]1O[C@@H](C#Cc2ccccc2)[C@H](OC(C)=O)[C@@H](OC(C)=O)[C@@H]1OC(C)=O` it is 283 nM.
The same measure for `FC(F)(F)c1ccc(CSc2ccc3nnc(-c4ccccn4)n3n2)cc1`: 817 nM; for `COc1ccc(OC)c(-c2ccc(=O)n(CC(=O)Nc3cccc4ccccc34)n2)c1`: 901 nM; for `N#Cc1ccc(N2CCN(Cc3cccc(-c4cccc(-c5nc6cc(C(F)(F)F)ccc6[nH]5)c4)c3)CC2)nc1`: 962 nM.
In the case of `C[C@H](Cc1ccc(OCCCCCCCOc2ccc(C[C@@H](C)NC[C@H](O)c3cccc(Cl)c3)cc2)cc1)NC[C@H](O)c1cccc(Cl)c1`, the XC50 was 189 nM.
Consider `COCCCNc1sc(S(=O)(=O)c2ccccc2)nc1S(=O)(=O)c1ccc(C)cc1`, for which the XC50 was 802 nM.
In the case of `COc1ccc(CCN(C)CCCOc2ccc(NC(=O)c3cccc4c(=O)c5ccccc5[nH]c34)cc2)cc1OC`, the XC50 was 912 nM.
The figure for `CC1(C)NC(N)=NC(=N)N1OCCc1cccc2ccccc12` is 3.2 nM; for `CCC[C@@H]1CCN[C@H]([C@H](O)c2ccnc3ccc(OC)cc23)C1` it is 726 nM.
In turn, `O=C(Nc1cccc(CN2CCCN(Cc3ccc4c(c3)OCO4)CC2)c1)c1ccc(-c2ccccc2)cc1` gave an XC50 of 652 nM.
On to `Cc1cc(Nc2ccccc2)nc(Nc2ccccc2)n1`, for which the XC50 worked out at 799 nM.
Take `CCN1CCN(c2cc(C)c3cc(NC(=O)c4cncc(Br)c4)ccc3n2)CC1`: the XC50 stood at 656 nM.
The molecule `O=C(c1ccco1)c1cn(CCOc2ccccc2)c2ccccc12` had an XC50 of 748 nM.
Regarding `CN1CCCC(CN2CCN(Cc3ccc(-c4cccc(-c5nc6ccccc6[nH]5)c4)cc3)CC2)C1` (stereo not given), the XC50 was found to be 132 nM.
On to `O=C(NCCCCN1CCC(c2ccc3c(c2OCCOCCO)CCCC3)CC1)c1ccc(-c2ccc(C(F)(F)F)cc2)cc1`, for which the XC50 amounted to 275 nM.
With `CN1CCN(Cc2cccc(-c3ccc4c(Nc5ccc(F)cc5Cl)ccnc4c3)c2)CC1`, the XC50 is 156 nM.
For the molecule `CC[C@H]1CN2CC[C@@H]1C[C@H]2[C@H](O)c1cc(N2CCC(C)CC2)nc2ccc(OC)cc12`, the XC50 came to 172 nM.
`CCCCCCCN1CC[C@@H](CCCc2ccnc3ccc(OCCN4CCOCC4)cc23)[C@@H](CC)C1` displayed an XC50 of 909 nM.
As to `N#Cc1ccc2[nH]cc(CN3CCC4(CC3)CN(CCNCc3ccccc3)C(=O)CO4)c2c1`, the XC50 is 758 nM.
In turn, `N=c1c2c(n(Cc3ccc(Cl)cc3Cl)c3c1CCC3)CCCC2` came in with an XC50 of 350 nM.
The figure for `NCCCOc1cnc(-c2ccccc2)c2nc(-c3nonc3N)n(CCc3ccccc3)c12` is 1270 nM; for `O=C(/C=C/c1ccc(Cl)c(Cl)c1)N(Cc1ccccc1)C1CCC(CN2CCC(c3c[nH]c4ccccc34)CC2)CC1` (stereo not given) it is 209 nM; for `Nc1ncc(-c2cccc(CCN3CCOCC3)c2)cc1-c1nc2cc(Br)ccc2[nH]1` it is 277 nM.
In turn, `COc1ccc2nccc([C@@H](O)CN3CCC(NC(=O)c4nc(Cl)c(Cl)c(N)c4Cl)CC3)c2c1` registered an XC50 of 1300 nM.
The figure for `O=c1[nH]ccc2nc(N[C@@H]3CCCNC3)nc(Nc3ccc(S(=O)(=O)N4CCOCC4)cc3)c12` is 742 nM.
`COc1ccc(CNCc2cccc(-c3cccc(-c4nc5cc(F)ccc5[nH]4)c3)c2)cc1` yielded an XC50 of 300 nM.
The same measure for `Cc1nc(C)c(CC(=O)Nc2cccc(-c3cccc(-c4nc5cccc(C)c5[nH]4)c3)c2)s1`: 755 nM.
`COc1cc(F)c2ncc(C#N)c(CCN3CCC(NCc4ccc5c(c4)OCCO5)CC3)c2c1` gave an XC50 of 428 nM.
For `N#Cc1ccc2[nH]cc(-c3cn4cc(SC5CCCC5)ccc4n3)c2c1`, the XC50 was found to be 942 nM.
